No end group written: not given here.
T1: human TAS1R2-I191V/TAS1R3-WT (Homo sapiens, UniProt Q7RTX0+Q8TE23, I191V)
T1 construct: expressed in transfected cells; host or cells: HEK293T-Gα16gust44
T1 sequence (Q8TE23 20-839 I191V): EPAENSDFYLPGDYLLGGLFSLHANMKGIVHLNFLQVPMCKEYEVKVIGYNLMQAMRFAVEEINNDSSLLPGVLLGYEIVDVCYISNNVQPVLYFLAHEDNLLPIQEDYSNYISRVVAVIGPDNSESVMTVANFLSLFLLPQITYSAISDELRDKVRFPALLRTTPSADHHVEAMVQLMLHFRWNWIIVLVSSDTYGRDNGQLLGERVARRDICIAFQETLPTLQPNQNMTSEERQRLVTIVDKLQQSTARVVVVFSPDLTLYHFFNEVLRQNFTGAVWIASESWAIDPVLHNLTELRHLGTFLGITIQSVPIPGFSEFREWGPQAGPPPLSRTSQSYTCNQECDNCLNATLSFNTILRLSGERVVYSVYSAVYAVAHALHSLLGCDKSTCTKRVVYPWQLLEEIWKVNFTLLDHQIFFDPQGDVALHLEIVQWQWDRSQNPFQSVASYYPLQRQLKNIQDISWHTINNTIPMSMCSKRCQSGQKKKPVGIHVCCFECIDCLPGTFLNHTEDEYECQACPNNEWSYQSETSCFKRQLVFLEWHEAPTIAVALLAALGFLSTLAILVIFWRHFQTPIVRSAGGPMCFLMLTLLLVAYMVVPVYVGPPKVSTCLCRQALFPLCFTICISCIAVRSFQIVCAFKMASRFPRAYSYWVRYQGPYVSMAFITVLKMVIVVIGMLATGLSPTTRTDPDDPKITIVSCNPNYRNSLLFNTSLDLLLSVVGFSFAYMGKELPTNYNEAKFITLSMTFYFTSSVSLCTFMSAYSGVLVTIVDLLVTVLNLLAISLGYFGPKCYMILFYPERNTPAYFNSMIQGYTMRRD
T1 sequence (Q7RTX0 21-852): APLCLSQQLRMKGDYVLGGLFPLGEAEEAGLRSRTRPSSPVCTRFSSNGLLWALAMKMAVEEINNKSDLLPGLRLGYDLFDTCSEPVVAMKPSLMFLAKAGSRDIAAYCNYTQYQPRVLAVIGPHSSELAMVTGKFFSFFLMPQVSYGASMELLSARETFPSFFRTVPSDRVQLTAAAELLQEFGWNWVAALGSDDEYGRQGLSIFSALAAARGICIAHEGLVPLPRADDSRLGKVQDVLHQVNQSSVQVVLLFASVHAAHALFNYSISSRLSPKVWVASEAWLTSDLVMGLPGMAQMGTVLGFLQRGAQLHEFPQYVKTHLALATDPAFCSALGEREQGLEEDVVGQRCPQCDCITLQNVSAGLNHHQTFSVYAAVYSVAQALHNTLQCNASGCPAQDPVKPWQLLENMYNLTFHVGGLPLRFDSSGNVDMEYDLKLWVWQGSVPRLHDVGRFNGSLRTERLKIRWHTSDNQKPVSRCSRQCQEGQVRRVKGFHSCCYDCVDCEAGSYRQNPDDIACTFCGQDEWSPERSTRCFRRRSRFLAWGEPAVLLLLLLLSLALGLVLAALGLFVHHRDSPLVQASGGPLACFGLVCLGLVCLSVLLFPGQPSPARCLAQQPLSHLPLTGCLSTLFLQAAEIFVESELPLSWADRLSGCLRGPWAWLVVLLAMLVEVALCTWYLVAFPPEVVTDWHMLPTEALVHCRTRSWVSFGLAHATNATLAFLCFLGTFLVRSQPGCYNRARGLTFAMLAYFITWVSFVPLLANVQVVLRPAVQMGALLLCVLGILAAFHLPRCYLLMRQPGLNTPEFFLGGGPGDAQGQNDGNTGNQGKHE

B1: thaumatin (protein)
chain: ATFEIVNRCSYTVWAAASKGDAALDAGGRQLNSGESWTINVEPGTKGGKIWARTDCYFDDSGSGICKTGDCGGLLRCKRFGRPPTTLAEFSLNQYGKDYIDISNIKGFNVPMDFSPTTRGCRGVRCAADIVGQCPAKLKAPGGGCNDACTVFQTSEYCCTTGKCGPTEYSRFFKRLCPDAFSYVLDKPTTVTCPGSSNYRVTFCPTA
modifications: Eight disulfides
notes: sweet-tasting plant protein, E957

Target: T1, human TAS1R2-I191V/TAS1R3-WT
Assay: Calcium mobilisation assay, TAS1R2 variant I191V with TAS1R3-WT
Type: cell-based
Conditions: for Max ΔF/F0: maximal signal amplitude
Description: The coding sequences for TAS1R2 and TAS1R3 were commercially synthesised, and the human codon was optimised for expression in human cells. The coding sequences of human TAS1R2 and TAS1R3 were subcloned and inserted into the mammalian expression vectors pcDNA6/myc-HisA and pcDNA4/myc-HisA (Invitrogen; Thermo Fisher Scientific; Illkirch, France) between the EcoRI and NotI restriction sites, generating the plasmids pcDNA6-TAS1R2 and pcDNA4-TAS1R3, respectively. To increase protein expression in mammalian cells, an upstream start codon was used, which was a sequence called MAX, corresponding to the QBI SP163 element also described in pcDNA4-HisMax (Invitrogen; Thermo Fisher Scientific; Illkirch, France). To measure the expression level of the receptor by immunohistochemistry, we used the FLAG sequence ([…]) in the C-terminal position, which encodes the FLAG tag epitope. SNP variants of TAS1R2 and TAS1R3 were constructed based on […], respectively, using site-directed mutagenesis (Genewiz; Leipzig, Germany).
The HEK293T cells were kindly provided by Jay P. Slack (Givaudan Flavors Corporation; Cincinnati, OH, USA). HEK293T cells stably transfected with Gα16gust44 [43, 67] were seeded in poly-D-lysine-coated clear-bottom black 96-well plates (0.35 × 10^5 cells/well) in high-glucose DMEM supplemented with 2 mM GlutaMAX, 10% dialysed foetal bovine serum with penicillin/streptomycin and G418 (400 μg/mL) at 37 °C and 6.3% CO2 in a humidified atmosphere as previously reported. […] As a negative control, HEK293T cells were mock-transfected with the empty expression vector. After a further 24 h of incubation, the HEK293T cells were washed with C1 buffer (130 mM NaCl, 5 mM KCl, 10 mM HEPES pH 7.4 and 2 mM CaCl2). The 96-well plates containing the cells were then stimulated with sweet-tasting compounds. […] Different concentration ranges were tested depending on the sweet compound injected. The Ca^2+ changes were expressed as fractional changes in fluorescent light intensity: ΔF/F = (F − F0)/F0, where F was the fluorescent light intensity at each point, and F0 was the value of emitted fluorescent light prior to stimulus application. To calculate dose–response relationships, the changes in fluorescence upon stimulus application were averaged, mock-subtracted and baseline-corrected. The dose–response data obtained were adjusted using a 4-parameter logistic equation. The half-maximal effective concentrations (EC50 values) and maximal signal amplitudes were calculated using SigmaPlot software (version 15.0) (Systat Software; San Jose, CA, USA).
For in vitro calcium mobilisation assay performed on hTAS1R2-SNPs, hTAS1R3-SNPs and mTAS1R3-I60T, 6 to 7 concentrations were tested for each sweet compound, plus buffer alone. All concentration–receptor combinations were measured in duplicate, and each experiment was repeated at least 4 times (8 wells/concentration). Results were expressed for each concentration as ΔF/F mean ± SEM and represented as dose–response curves.

Row | Molecule | EC50 [µM] | R1 = Variant EC50/WT EC50 | Max ΔF/F0
1 | OC[C@H]1O[C@H](O[C@]2(CCl)O[C@H](CCl)[C@@H](O)[C@@H]2O)[C@H](O)[C@@H](O)[C@H]1Cl [Sucralose] | 87 ± 7 | 1.0 | 0.52 ± 0.02
2 | O=S(=O)(O)NC1CCCCC1 [Cyclamate, cyclamate] | 2020 ± 31 |  | 
3 | C=C(C)[C@@H]1CC=C(/C=N/O)CC1 [Perillartine, perillartine] | 27.9 ± 0.5 | 1.6 | 1.27 ± 0.01
4 | C=C1C[C@@]23CC[C@H]4[C@@](C)(CCC[C@@]4(C)C(=O)O[C@@H]4O[C@H](CO)[C@@H](O)[C@H](O[C@@H]5O[C@H](CO)[C@@H](O)[C@H](O)[C@H]5O)[C@H]4O[C@@H]4O[C@H](CO)[C@@H](O)[C@H](O)[C@H]4O)[C@@H]2CC[C@]1(O[C@@H]1O[C@H](CO)[C@@H](O)[C@H](O[C@@H]2O[C@H](CO)[C@@H](O)[C@H](O)[C@H]2O)[C@H]1O[C@@H]1O[C@H](CO)[C@@H](O)[C@H](O)[C@H]1O)C3 [Rebaudioside M, rebaudioside M] | 21 ± 0.4 | 1.2 | 1.10 ± 0.01
5 | COc1ccc(CCC(=O)c2c(O)cc(O[C@@H]3O[C@H](CO)[C@@H](O)[C@H](O)[C@H]3O[C@@H]3O[C@@H](C)[C@H](O)[C@@H](O)[C@H]3O)cc2O)cc1O [NHDC, neohesperidin dihydrochalcone] | 109 ± 4.6 | 1.4 | 0.73 ± 0.01
6 | thaumatin |  | 1.0 | 0.34 ± 0.02
7 | CC1=CC(=O)NS(=O)(=O)O1 [Acesulfame K, acesulfame K] | 492 ± 30 | 0.7 | 0.27 ± 0.01
8 | brazzein (QDKCKKVYENYPVSKCQLANQCNYDCKLDKHARSGECFYDEKRNLQCICDYCEY; ends and bridges not checked; cysteine pairing not given here; UniProt P56552 1-54, looked up) [sweet-tasting protein obtained by recombinant production using the yeast Pichia pastoris] |  | 1.7 | 1.12 ± 0.02
9 | C[C@H](CC[C@@H](O[C@@H]1O[C@H](CO[C@@H]2O[C@H](CO)[C@@H](O)[C@H](O)[C@H]2O)[C@@H](O)[C@H](O)[C@H]1O[C@@H]1O[C@H](CO)[C@@H](O)[C@H](O)[C@H]1O)C(C)(C)O)[C@H]1CC[C@@]2(C)[C@@H]3CC=C4[C@@H](CC[C@H](O[C@@H]5O[C@H](CO[C@@H]6O[C@H](CO)[C@@H](O)[C@H](O)[C@H]6O)[C@@H](O)[C@H](O)[C@H]5O)C4(C)C)[C@]3(C)[C@H](O)C[C@]12C [Mogroside V, mogroside V] | 19.2 ± 1.7 | 1.1 | 1.33 ± 0.04
10 | COC(=O)[C@H](Cc1ccccc1)NC(=O)[C@H](CC(=O)O)NCCC(C)(C)C [Neotame] | 0.84 ± 0.08 | 1.0 | 0.64 ± 0.02
11 | B1 | 7.7 ± 0.9 |  | 

Reference: publication PMC11945486, “TAS1R2/TAS1R3 Single-Nucleotide Polymorphisms Affect Sweet Taste Receptor Activation by Sweeteners: The SWEET Project” (Nutrients, 2025)
